The subject of data set [1] is L929sAhFas. Briefly: Necroptosis induced by FasL + zVAD-fmk in L929sAhFas, MTS Cell Proliferation assay. It is filed as cell-based. Conditions: Mus musculus. As to the method: (§1) Besides, the IC50 of compound 3, compound 6 and necrostatin-1 (Nec-1) were determined in mouse or human cellular models of necroptosis induced by FasL+zVAD-fmk (a pan-caspase inhibitor) or TNF, and by using two cytotoxic assays (MTS Cell Proliferation assay or intracellular ATP level). As shown in the table below, compound 3 and compound 6 inhibit TNF-α or FasL-induced necroptosis with IC50 almost similar to those obtained with Nec-1.

Data set [2] concerns Jurkat Fadd−/−. Description: Necroptosis induced by TNF in Jurkat Fadd−/−, MTS Cell Proliferation assay. Type of data set: cell-based. Conditions: Homo sapiens. As to the method:
as §1
Background: Formazan colour is commonly taken as a measure of viable cells.

Data set [3] concerns L929sAhFas. Description: Necroptosis induced by FasL + zVAD-fmk in L929sAhFas, intracellular ATP level. It is filed as cell-based. The conditions noted are these: Mus musculus. Here is the method:
as §1

Data set [4] deals with Jurkat Fadd−/−. Description: Necroptosis induced by TNF in Jurkat Fadd−/−, intracellular ATP level. The conditions noted are these: Homo sapiens. Type of data set: cell-based. Here is the method: as §1
Data set [5] relates to cytochrome P450 CYP1A enzymes in HepG2 cells. Briefly: Ethoxyresorufin O-deethylase (EROD) activity in HepG2 cells. The conditions noted are these: 10 μM, 24 hours. Type of data set: in vitro ADME, human. Here is the method: EROD activity corresponds to the O-deethylation of ethoxyresorufin and is mainly supported by cytochrome P450 CYP1A enzymes in HepG2 cells. Induction of CYP1A is mediated through the binding of xenobiotics to a cytosolic aryl hydrocarbon receptor AhR.
Human liver cancer cell lines HepG2 were treated with 10 μM of Sib, Nec-1 or Nec-1s for 24 hours. After treatment, HepG2 cells were incubated in PBS containing 5 mM ethoxyresorufin and kinetic reading was performed at 37° C. with spectrofluorometer (SpectraMax Gemini SX) over a 15 min period.

Data set [6] deals with murine model of acute hepatitis (concanavalin A-induced hepatitis). Briefly: Concanavalin A-induced acute hepatitis in mice. It is filed as in vivo, C57Bl/6 WT mice. The conditions noted are these: Nec-1s 6.25 mg/kg intraperitoneal 1 hour before 12 mg/kg Con A for 10 h. Here is the method:
We use a murine model of acute hepatitis (concanavalin A-induced hepatitis) that depends on necroptosis induction (Jouan-Lanhouet et al. Semin. Cell. Dev. Biol. 2014, 35, 2-13). Sib is diluted in 50% PBS/50% DMSO.
C57Bl/6 WT mice were pre-treated or not with 3, 6 or 9 mg/kg Sib or 6.25 mg/kg Nec-1s injected by intraperitoneal route 1 hour before treatment or not with 12 mg/kg Con A for 10 h (intravenous route) (50% PBS/50% DMSO, n=5; 50% PBS/50% DMSO+Con A, n=5; 3 mg/kg Sib+Con A, n=5; 6 mg/kg Sib+Con A, n=5; 9 mg/kg Sib+Con A, n=5; 6.25 mg/kg Nec-1s+Con A, n=5).

Data set [7] has as its system Jurkat FADD-deficient I 2.1 cell line. Description: Cell-based screening: TNF-α-induced necroptosis in Jurkat FADD-deficient cells, MTS viability assay. More on the design: species or system human. Conditions: for EC50: Homo sapiens, Jurkat, necroptosis induced by 10 ng/ml TNF-α, 24 hours, MTS viability; for inhibition of necroptosis induced by TNF-α (figure legend): human T lymphocyte, Jurkat FADD deficient cell line. The source says:
TNF-α can induce necroptosis in Jurkat cells (human T lymphocytes) when FADD is deleted. This model was used to screen various libraries of chemical compounds for characterization of new inhibitors of cellular necroptosis. Details on this cell-based assay can be found in (Miao and Degterev, Methods Mol. Biol. 2009, 559, 79-93). The Jurkat FADD-deficient I 2.1 cell line used was purchased from ATCC and was maintained in RPMI 1640 medium (Gibco) containing Glutamax and 15% fetal calf serum (Life Technology). Necroptosis was induced by addition of 10 ng/ml of human recombinant TNF-α (Life Technology). Necrostatin-1 (Nec-1, Enzo Life Sciences) was used as model necroptosis inhibitor. Cells were maintained in 75 cm^2 flask and passed every 2 or 3 days. Chemical collections analysed were formatted in 96-well plates with 80 molecules per plates at 10 mM in 100% DMSO. For each collection plate, 2 cell plates were seeded (one necroptosis-induced with TNF-α and the other without TNF-α). Cells were seeded at 20000 cells/well, in 40 μl of medium, in a 96-well clear, flat bottom plate (CytoOne, Starlab) before treatment. Then, 40 μl of medium with or without TNF-α at 25 ng/ml were added to all wells in the corresponding plate. Immediately after TNF-α addition, 20 μl of diluted compound at 50 μM were added to the plates. Final concentration of each chemical compound was 10 μM at 0.1% DMSO. Four positives (Nec-1 at 10 μM final) and four negative (DMSO) controls were used in each plate to validate the assay. Cells were incubated at 37° C., 5% CO2 for 24 hours before performing MTS viability assay, described hereafter. Compounds were diluted before to treat cells. Liquid handling was performed using the Nimbus Microlab liquid handler (Hamilton Robotics) under microbiological safety workbench. The 10 mM compounds were diluted at 50 μM directly in cell medium.

In data set [8] the target is T1, Human RIPK1 full length GST-tagged (Homo sapiens, UniProt Q13546).
T1 construct: Human RIPK1 full length GST-tagged; made in house; host or cells: Sf9 insect cells (Bac-to-Bac baculovirus system)
T1 sequence (Q13546 1-671): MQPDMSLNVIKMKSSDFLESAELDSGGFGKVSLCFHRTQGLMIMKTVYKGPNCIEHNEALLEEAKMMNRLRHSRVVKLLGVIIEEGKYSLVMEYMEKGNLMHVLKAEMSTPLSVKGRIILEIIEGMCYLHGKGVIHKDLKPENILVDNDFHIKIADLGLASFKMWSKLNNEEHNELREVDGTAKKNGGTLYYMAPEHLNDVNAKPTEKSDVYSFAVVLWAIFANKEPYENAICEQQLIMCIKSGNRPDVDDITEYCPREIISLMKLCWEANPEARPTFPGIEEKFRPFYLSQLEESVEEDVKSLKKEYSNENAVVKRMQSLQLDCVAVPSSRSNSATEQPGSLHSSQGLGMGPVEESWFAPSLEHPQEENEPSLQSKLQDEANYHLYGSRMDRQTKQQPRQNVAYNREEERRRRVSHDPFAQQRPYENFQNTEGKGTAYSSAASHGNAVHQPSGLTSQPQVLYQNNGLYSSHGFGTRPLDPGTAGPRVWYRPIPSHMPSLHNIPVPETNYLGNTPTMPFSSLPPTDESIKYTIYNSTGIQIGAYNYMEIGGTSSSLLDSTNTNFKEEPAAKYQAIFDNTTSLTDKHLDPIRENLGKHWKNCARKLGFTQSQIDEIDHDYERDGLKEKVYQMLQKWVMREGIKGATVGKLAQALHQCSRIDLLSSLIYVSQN
Description: RIPK1 autophosphorylation assay. Type of data set: biochemical. The conditions noted are these: radioactively labeled RIPK1, [γ-32P] ATP, 30 minutes at 30° C. Here is the method:
Human RIPK1 full length GST-tagged was baculovirally expressed in Sf9 cells according to manufacturer's instructions (Bac-to-Bac expression system, Invitrogen) and purified using gluthation-sepharose beads (GE Healthcare). The elution was made in 50 mM Tris-HCl, pH 8.0 buffer supplemented with 30 mM reduced gluthatione (Sigma). The protocol used to detect the enzymatic activity is adapted from Miao and Degterev (Methods Mol. Biol. 2009, 559, 79-93). Kinase reaction was initiated mixing 5 μl of eluted RIPK1, 5 μl of 3× kinase reaction buffer (5 mM MOPS pH 7.2, 2.5 mM β-glycerophosphate, 4 mM MgCl2, 2.5 mM MnCl2, 1 mM EGTA, 0.4 mM EDTA, 50 μg/ml BSA, 0.05 mM DTT), 2 μl H2O and 3 μl of the tested molecule. The mixture was kept on ice for 10 minutes. During the incubation, the ATP solution was prepared by mixing 5 μl of 3× kinase reaction buffer, 4 μl H2O, 6 μl cold ATP at 150 μM and 2 μCi of [γ-^32P] ATP. Add the ATP solution and the tested inhibitor to the kinase and incubate for 30 minutes at 30° C. To stop the enzymatic reaction, 5 μl of loading buffer were added and solution was heated for 3 minutes at 95° C. 25 μl of each reaction were loaded per well in pre-cast NuPage 12% Bis-Tris gel (Life Technology). Autophosphorylated RIPK1 band was visualized on radiographic film after 6 h exposition at −80° C.

The IC50 is the concentration that gives 50% inhibition. For `CN1C(=O)C(Cc2c[nH]c3ccccc23)NC1=S` (centres unmarked) [Nec-1, necrostatin-1, reference compound], the 50% inhibitory concentration (IC50) came to 10 µM in data set [1], 1.3 µM in data set [2], 10 µM in data set [3] and 1.3 µM in data set [4].

Regarding `CN1C(=O)NC(Cc2c[nH]c3c(Cl)cccc23)C1=O` (centres unmarked) [Nec-1s, reference compound], the “induction of EROD activity” value in data set [5] is “do not induce EROD activity”. Also, in data set [6], the “AST and ALT levels and protection from Con A-induced hepatitis” value is “has a tendency to decrease AST and ALT levels and to protect mice from Con A-induced hepatitis”.

As a reminder, the EC50 is the midpoint of the concentration-response curve. Higher therefore signals a need for much substance. Regarding `COc1ccc(-c2cc3cccnc3[nH]2)cc1` [compound 1, 2-(4-methoxyphenyl)-1H-pyrrolo[2,3-b]pyridine], in data set [7], the 50% effective concentration (EC50) was 0.4 µM and the “inhibition of necroptosis induced by TNF-α (figure legend)” value (from here on “inhibition of necroptosis induced”) is “dose-dependent inhibition”.

For `CCOc1ccc(-c2cc3cccnc3[nH]2)cc1` [compound 3, 2-(4-ethoxyphenyl)-1H-pyrrolo[2,3-b]pyridine], the 50% effective concentration (EC50) in data set [7] worked out at 0.7 µM. Moreover, the “inhibition of necroptosis induced” value in data set [7] is “dose-dependent inhibition”. Also, the IC50 in data set [2] worked out at 2.7 µM; in data set [3], 2.5 µM; in data set [4], 1.3 µM. Moreover, the “inhibition of RIPK1 autophosphorylation” value in data set [8] is on record as “dose-dependent inhibition”.

For `CC(C)Oc1ccc(-c2cc3cccnc3[nH]2)cc1` [compound 4, 2-(4-isopropoxyphenyl)-1H-pyrrolo[2,3-b)pyridine], in data set [7], the concentration for a half-maximal effect (EC50) is 0.9 µM and the “inhibition of necroptosis induced” value is reported as “dose-dependent inhibition”.

`c1cnc2[nH]c(-c3ccc4c(c3)OCCO4)cc2c1` [compound 5, 2-(1,4-benzodioxanyl)-1H-pyrrolo[2,3-b]pyridine]: the response in data set [7] was half-maximal at 1.4 µM (EC50).

In data set [7], `c1cnc2[nH]c(-c3ccc4c(c3)OCO4)cc2c1` [compound 6] registered an EC50 of 1.8 µM. Moreover, the concentration for half-maximal inhibition (IC50) in data set [1] is 10 µM; in data set [2] it was 7 µM; in data set [4] it was 4 µM.

For the molecule `CCOc1ccc(-c2cc3c(Cl)ccnc3[nH]2)cc1` [compound 7, 4-chloro-2-(4-ethoxyphenyl)-1H-pyrrolo[2,3-b]pyridine], in data set [7], a half-maximal effect (EC50) was put at 2 µM and the “inhibition of necroptosis induced” value is listed as “dose-dependent inhibition”. Moreover, the “inhibition of RIPK1 autophosphorylation” value in data set [8] was “dose-dependent inhibition”.

On to `CCOc1ccc(-c2cc3cc(-c4ccc(OC)c(OC)c4)cnc3[nH]2)cc1` [compound 8, 5-(3,4-dimethoxyphenyl)-2-(4-ethoxyphenyl)-1H-pyrrolo[2,3-b]pyridine], for which, in data set [7], a half-maximal response (EC50) required 1.5 µM and the “inhibition of necroptosis induced” value is “dose-dependent inhibition”.

Regarding `c1cnc2[nH]c(-c3ccc(OC4CCCC4)cc3)cc2c1` [compound 9, 2-(4-(cyclopentyloxy)phenyl)-1H-pyrrolo[2,3-b]pyridine], in data set [7], the EC50 is 3 µM and the “inhibition of necroptosis induced” value was “dose-dependent inhibition”.

For `CCOc1ccc(-c2cc3cc(Br)cnc3[nH]2)cc1` [compound 10, 5-bromo-2-(4-ethoxyphenyl)-1H-pyrrolo[2,3-b]pyridine], the “inhibition of necroptosis induced” value in data set [7] was “slight dose-dependent inhibition”.

(Values after patent US10426758B2, “Sibiriline derivatives for use for preventing and/or treating disorders associated with cellular necroptosis” (Institut National de la Sante et de la Recherche Medicale …, priority 2015, dated 2019).)
